How the values were obtained:
Experiment in all cases: relative viability (nuclei count vs DMSO), 5 days (fraction); higher = more cells survive
201T = system: 201T
In short: (§1)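 Lung cancer cell lines were seeded in 1536-well plates and dosed by pin tool the next day, with either a single drug or a fixed anchor-drug dose combined with five library-drug doses (not always all listed) spaced in √10 steps. Five days later, one step fixed the cells and stained their nuclei (final 0.05% Triton X-100, 1% formaldehyde, 1 ug/ml Hoechst), and nuclei were counted on 4× images. Relative viability is the nuclei count in treated wells divided by the count in vehicle wells, and each value is the median of duplicate plates.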

BEN = system: BEN
In short: as §1

CAL-12T = system: CAL-12T
In short: as §1

COR-L 105 = system: COR-L 105
In short: as §1

H3255 = system: H3255
In short: as §1

HARA = system: HARA
In short: as §1

HCC-15 = system: HCC-15
In short: as §1

HCC-827 = system: HCC-827
In short: as §1

LC-2-ad = system: LC-2-ad
In short: as §1

LCLC-103H = system: LCLC-103H
In short: as §1

LK-2 = system: LK-2
In short: as §1

LU99A = system: LU99A
In short: as §1

CCCCCCCCCCCC1=C(O)C(=O)C=C(O)C1=O [Embelin] + Cc1nc(NC(=O)N2CCC[C@H]2C(N)=O)sc1-c1ccnc(C(C)(C)C(F)(F)F)c1 [Alpelisib] (partner 2 µM)
relative viability (201T; first compound 0.08 µM): 0.979
relative viability (201T; first compound 0.8 µM): 1.03
relative viability (201T; first compound 2.53 µM): 0.981
relative viability (201T; first compound 8 µM): 0.971
relative viability (BEN; first compound 0.08 µM): 1.09
relative viability (BEN; first compound 0.8 µM): 1.31
relative viability (BEN; first compound 2.53 µM): 1.3
relative viability (BEN; first compound 8 µM): 1.01
relative viability (CAL-12T; first compound 0.08 µM): 1.24
relative viability (CAL-12T; first compound 0.8 µM): 1.49
relative viability (CAL-12T; first compound 2.53 µM): 1.31
relative viability (CAL-12T; first compound 8 µM): 1.33
relative viability (COR-L 105; first compound 0.08 µM): 0.951
relative viability (COR-L 105; first compound 0.8 µM): 1.15
relative viability (COR-L 105; first compound 2.53 µM): 0.968
relative viability (COR-L 105; first compound 8 µM): 1.31
relative viability (H3255; first compound 0.08 µM): 0.935
relative viability (H3255; first compound 0.8 µM): 0.804
relative viability (H3255; first compound 2.53 µM): 0.766
relative viability (H3255; first compound 8 µM): 0.653
relative viability (HARA; first compound 0.08 µM): 0.848
relative viability (HARA; first compound 0.8 µM): 0.887
relative viability (HARA; first compound 2.53 µM): 0.989
relative viability (HARA; first compound 8 µM): 0.702
relative viability (HCC-15; first compound 0.08 µM): 0.882
relative viability (HCC-15; first compound 0.8 µM): 0.864
relative viability (HCC-15; first compound 2.53 µM): 0.957
relative viability (HCC-15; first compound 8 µM): 0.995
relative viability (HCC-827; first compound 0.08 µM): 1.03
relative viability (HCC-827; first compound 0.8 µM): 0.929
relative viability (HCC-827; first compound 2.53 µM): 1.07
relative viability (HCC-827; first compound 8 µM): 0.961
relative viability (LC-2-ad; first compound 0.08 µM): 0.891
relative viability (LC-2-ad; first compound 0.8 µM): 0.913
relative viability (LC-2-ad; first compound 2.53 µM): 0.716
relative viability (LC-2-ad; first compound 8 µM): 0.892
relative viability (LCLC-103H; first compound 0.08 µM): 1.07
relative viability (LCLC-103H; first compound 0.8 µM): 1.02
relative viability (LCLC-103H; first compound 2.53 µM): 1.02
relative viability (LCLC-103H; first compound 8 µM): 0.866
relative viability (LK-2; first compound 0.08 µM): 1.09
relative viability (LK-2; first compound 0.8 µM): 1.5
relative viability (LK-2; first compound 2.53 µM): 1.09
relative viability (LK-2; first compound 8 µM): 0.99
relative viability (LU99A; first compound 0.08 µM): 0.558
relative viability (LU99A; first compound 0.8 µM): 0.533

— the supplement of paper PMC10307832
